Assay results from US9637469B2, “Pyridine derivative” (Teijin Pharma Limited, priority 2012, dated 2017).

The molecules below were run against T1, human URAT1 (Homo sapiens, UniProt Q96S37) (assay: Test for inhibition of uric acid transport using human URAT1-expressing cells). Conditions: HEK 293 cells expressing human URAT1; 14C-labeled uric acid 25 μM; uptake 37° C. for 5 min.
T1 construct: Full-length cDNA of human URAT1 (hURAT1)
T1 sequence (Q96S37 1-553): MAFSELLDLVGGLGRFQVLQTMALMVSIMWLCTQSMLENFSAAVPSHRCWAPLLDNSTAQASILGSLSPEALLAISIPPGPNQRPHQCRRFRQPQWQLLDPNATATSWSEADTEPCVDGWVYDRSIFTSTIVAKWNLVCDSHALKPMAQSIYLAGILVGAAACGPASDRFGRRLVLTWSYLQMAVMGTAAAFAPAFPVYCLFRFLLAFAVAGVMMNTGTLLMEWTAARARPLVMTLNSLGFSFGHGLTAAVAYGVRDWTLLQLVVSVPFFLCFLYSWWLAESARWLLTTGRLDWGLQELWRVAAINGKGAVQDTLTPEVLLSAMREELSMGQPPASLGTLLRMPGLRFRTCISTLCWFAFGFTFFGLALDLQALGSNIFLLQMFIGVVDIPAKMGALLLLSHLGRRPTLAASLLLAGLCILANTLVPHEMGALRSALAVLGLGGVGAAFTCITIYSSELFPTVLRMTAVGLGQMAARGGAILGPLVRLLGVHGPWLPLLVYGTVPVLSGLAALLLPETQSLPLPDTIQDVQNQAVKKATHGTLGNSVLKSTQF
Assay type: cell-based
Summary of the method: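 IC50 values reflect inhibition of ¹⁴C-uric acid uptake (25 μM final, 5 min, 37 °C) by compound. Cells were HEK293 stably expressing full-length human URAT1, preincubated in Na-gluconate-substituted HBSS. Radioactivity in lysates was expressed relative to DMSO control as 100%.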
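Further: three stars up to 0.2 µM two stars 0.2-2 µM one star 2-20 µM.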

Compound	Inhibitory Activity (IC50 of uric acid transport inhibition)
O=C(O)c1c(CN2CCOCC2)nc(-c2cncc(Cl)c2)n1Cc1cc(Cl)ccc1Cl [Compound A196, 2-(5-chloropyridin-3-yl)-1-(2,5-dichlorobenzyl)-4-(morpholinomethyl)-1H-imidazole-5-carboxylic acid]	* * *
CN1CCN(Cc2nc(-c3cncc(Cl)c3)n(Cc3cc(Cl)ccc3Cl)c2C(=O)O)CC1 [Compound A197, 2-(5-chloropyridin-3-yl)-1-(2,5-dichlorobenzyl)-4-((4-methylpiperazine-1-yl)methyl)-1H-imidazole-5-carboxylic acid]	* * *
O=C(O)c1c(Cn2ccnc2)nc(-c2cncc(Cl)c2)n1Cc1cc(Cl)ccc1Cl [Compound A199, 4-((1H-imidazol-1-yl)methyl)-2-(5-chloropyridin-3-yl)-1-(2,5-dichlorobenzyl)-1H-imidazole-5-carboxylic acid]	* *
O=C(O)c1c(Cn2cccn2)nc(-c2cncc(Cl)c2)n1Cc1cc(Cl)ccc1Cl [Compound A200, 4-((1H-pyrazol-1-yl)methyl)-2-(5-chloropyridin-3-yl)-1-(2,5-dichlorobenzyl)-1H-imidazole-5-carboxylic acid]	* * *
CCCN1CCN(Cc2nc(-c3cncc(Cl)c3)n(Cc3cc(Cl)ccc3Cl)c2C(=O)O)CC1 [Compound A202, 2-(5-chloropyridin-3-yl)-1-(2,5-dichlorobenzyl)-4-((4-propylpiperazin-1-yl)methyl)-1H-imidazole-5-carboxylic acid]	* * *
CS(=O)(=O)N1CCN(Cc2nc(-c3cncc(Cl)c3)n(Cc3cc(Cl)ccc3Cl)c2C(=O)O)CC1 [Compound A203, 2-(5-chloropyridin-3-yl)-1-(2,5-dichlorobenzyl)-4-((4-(methylsulfonyl)piperazin-1-yl)methyl)-1H-imidazole-5-carboxylic acid]	* *
CCS(=O)(=O)N1CCN(Cc2nc(-c3cncc(Cl)c3)n(Cc3cc(Cl)ccc3Cl)c2C(=O)O)CC1 [Compound A204, 2-(5-chloropyridin-3-yl)-1-(2,5-dichlorobenzyl)-4-((4-(ethylsulfonyl)piperazin-1-yl)methyl)-1H-imidazole-5-carboxylic acid]	* * *
O=C(O)c1cnc(-c2cncc(Br)c2)n1Cc1cc(Cl)ccc1Cl [Compound A205, 2-(5-bromopyridin-3-yl)-1-(2,5-dichlorobenzyl)-1H-imidazole-5-carboxylic acid]	* * *
Cc1cncc(-c2ncc(C(=O)O)n2Cc2cc(Cl)ccc2Cl)c1 [Compound A206, 1-(2,5-dichlorobenzyl)-2-(5-methylpyridin-3-yl)-1H-imidazole-5-carboxylic acid]	* * *
O=C(O)c1c(C(F)F)nc(-c2cncc(Cl)c2)n1Cc1cc(Cl)ccc1Cl [Compound A207, 2-(5-chloropyridin-3-yl)-1-(2,5-dichlorobenzyl)-4-(difluoromethyl)-1H-imidazole-5-carboxylic acid]	* * *
Cc1nc(-c2cncc(C(F)F)c2)n(Cc2cc(Cl)ccc2Cl)c1C(=O)O [Compound A208, 1-(2,5-dichlorobenzyl)-2-(5-(difluoromethyl)pyridin-3-yl)-4-methyl-1H-imidazole-5-carboxylic acid]	* * *
C#Cc1nc(-c2cncc(Cl)c2)n(Cc2cc(Cl)ccc2Cl)c1C(=O)O [Compound A209, 2-(5-chloropyridin-3-yl)-1-(2,5-dichlorobenzyl)-4-ethynyl-1H-imidazole-5-carboxylic acid]	* * *
O=C(O)c1nc(-c2cncc(Cl)c2)n(Cc2cc(Cl)ccc2Cl)c1C(=O)O [Compound A210, 2-(5-chloropyridin-3-yl)-1-(2,5-dichlorobenzyl)-1H-imidazole-4,5-dicarboxylic acid]	* * *
CC(O)c1nc(-c2cncc(Cl)c2)n(Cc2cc(Cl)ccc2Cl)c1C(=O)O (stereo not shown) [Compound A211, 2-(5-chloropyridin-3-yl)-1-(2,5-dichlorobenzyl)-4-(1-hydroxyethyl)-1H-imidazole-5-carboxylic acid]	* * *
CC(C)(O)c1nc(-c2cncc(F)c2)n(Cc2cc(Cl)ccc2Cl)c1C(=O)O [Compound A212, 1-(2,5-dichlorobenzyl)-2-(5-fluoropyridin-3-yl)-4-(2-hydroxypropan-2-yl)-1H-imidazole-5-carboxylic acid]	* * *
CC(C)(O)c1nc(-c2cncc(Cl)c2)n(Cc2cc(Cl)ccc2Cl)c1C(=O)O [Compound A213, 2-(5-chloropyridin-3-yl)-1-(2,5-dichlorobenzyl)-4-(2-hydroxypropan-2-yl)-1H-imidazole-5-carboxylic acid]	* * *
Cc1cncc(-c2nc(C(C)(C)O)c(C(=O)O)n2Cc2cc(Cl)ccc2Cl)c1 [Compound A214, 1-(2,5-dichlorobenzyl)-4-(2-hydroxypropan-2-yl)-2-(5-methylpyridine-3-yl)-1H-imidazole-5-carboxylic acid]	* * *
CCC(O)(CC)c1nc(-c2cncc(F)c2)n(Cc2cc(Cl)ccc2Cl)c1C(=O)O [Compound A215, 1-(2,5-dichlorobenzyl)-2-(5-fluoropyridin-3-yl)-4-(3-hydroxypentan-3-yl)-1H-imidazole-5-carboxylic acid]	* * *
CCC(O)(CC)c1nc(-c2cncc(Cl)c2)n(Cc2cc(Cl)ccc2Cl)c1C(=O)O [Compound A216, 2-(5-chloropyridin-3-yl)-1-(2,5-dichlorobenzyl)-4-(3-hydroxypentane-3-yl)-1H-imidazole-5-carboxylic acid]	* * *
CCC(O)(CC)c1nc(-c2cncc(C)c2)n(Cc2cc(Cl)ccc2Cl)c1C(=O)O [Compound A217, 1-(2,5-dichlorobenzyl)-4-(3-hydroxypentan-3-yl)-2-(5-methylpyridin-3-yl)-1H-imidazole-5-carboxylic acid]	* * *
CC(=O)c1nc(-c2cncc(Cl)c2)n(Cc2cc(Cl)ccc2Cl)c1C(=O)O [Compound A218, 4-acetyl-2-(5-chloropyridin-3-yl)-1-(2,5-dichlorobenzyl)-1H-imidazole-5-carboxylic acid]	* * *
Cc1cncc(-c2nc(Cl)c(C(=O)O)n2Cc2cc(Cl)ccc2Cl)c1 [Compound A219, 4-chloro-1-(2,5-dichlorobenzyl)-2-(5-methylpyridin-3-yl)-1H-imidazole-5-carboxylic acid]	* * *
O=C(O)c1c(Cl)nc(-c2cncc(Cl)c2)n1Cc1cc(Cl)ccc1Cl [Compound A220, 4-chloro-2-(5-chloropyridine-3-yl)-1-(2,5-dichlorobenzyl)-1H-imidazole-5-carboxylic acid]	* * *

Same assay, conditions: HEK 293 cells expressing human URAT1; 14C-labeled uric acid 25 μM; uptake 37° C. for 5 min; read-out: Inhibitory Activity (IC50 of uric acid transport inhibition)

Compound	IC50
O=C(O)c1c(CN2CCC(O)CC2)nc(-c2cncc(Cl)c2)n1Cc1cc(Cl)ccc1Cl [Compound A198]	2 to 20 µM
NCc1nc(-c2cncc(Cl)c2)n(Cc2cc(Cl)ccc2Cl)c1C(=O)O [Compound A201]	2 to 20 µM
